US20240116985A1, “STAPLED PEPTIDES AND METHODS THEREOF” (priority 2020, published 2024)

Assay: CHI Log D procedure
Type: physicochemical
Details: for CHI Log D: pH 7.4

Row | CHI Log D | chromatographic logD (pH 7.4, CHI Log D) | also measured | SMILES
1 | 2.247 | – | – | CC(=O)N[C@@H](Cc1ccccc1)C(=O)N[C@@H](CC(=O)O)C(=O)N[C@@H](C)C(=O)N[C@]1(C)CCCCCCC=CCOC(=O)N2CC[C@@](C(=O)N[C@@H](Cc3ccccc3)C(=O)N[C@@H](Cc3c[nH]c4ccccc34)C(=O)N[C@@H](CCC(N)=O)C(N)=O)(C2)NC(=O)[C@H](C(C)C)NC(=O)[C@H](Cc2ccccc2)NC(=O)[C@H](C)NC(=O)[C@H](C)NC(=O)[C@H](Cc2ccc(-c3ccccc3)cc2)NC(=O)[C@H](CC(=O)O)NC1=O (single isomer, unassigned) [I-12, Ac-Phe-Asp-Ala-R8-Asp-Bip-Ala-Ala-Phe-Val-PyrS-Phe-Trp-Gln-NH2]
2 | – | 3.13 | – | CC(=O)N1CCC[C@]12CC=CCCCC1(CCCC=CCCCCCC[C@@](C)(C(=O)N[C@@H](Cc3ccccc3)C(=O)N[C@@H](Cc3c[nH]c4ccccc34)C(=O)N[C@@H](CCC(N)=O)C(N)=O)NC(=O)[C@H](C(C)C)NC(=O)[C@H](Cc3ccccc3)NC(=O)[C@H](C)NC(=O)[C@H](C)NC(=O)[C@H](C(c3ccccc3)c3ccccc3)NC(=O)[C@H](CC(=O)O)NC1=O)NC(=O)[C@H](C)NC(=O)[C@H](CC(=O)O)NC2=O (stereo partly drawn) [I-303, Ac-PL3-Asp-Ala-B5-Asp-DipA-Ala-Ala-Phe-Val-S8-Phe-Trp-Gln-NH2]
3 | – | – | logD (pH 7.4, CHI Log D): 1.86 | CC(=O)N1CCC[C@]12CC=CCCCC1(CCCC=CCCCCCC[C@@](C)(C(=O)N[C@@H](Cc3ccccc3)C(=O)N[C@@H](Cc3c[nH]c4ccccc34)C(=O)N[C@@H](CO)C(N)=O)NC(=O)[C@H](C(C)C)NC(=O)[C@H](Cc3ccccc3)NC(=O)[C@H](C)NC(=O)[C@H](C)NC(=O)[C@H](CC(=O)O)NC(=O)[C@H](CC(=O)O)NC1=O)NC(=O)[C@H](C)NC(=O)[C@H](CC(=O)O)NC2=O (single isomer, unassigned) [I-334, Ac-PL3-Asp-Ala-B5-Asp-Asp-Ala-Ala-Phe-Val-S8-Phe-WCHO-Ser-NH2]
4 | 2.138 | – | – | CC(=O)N1CCC[C@]12CC=CCCCC1(CCCC=CCCCCCC[C@@](C)(C(=O)N[C@@H](Cc3ccccc3)C(=O)N[C@@H](Cc3c[nH]c4ccc(C5CC5)cc34)C(=O)N[C@@H](CCC(N)=O)C(N)=O)NC(=O)[C@H](C(C)C)NC(=O)[C@H](Cc3ccccc3)NC(=O)[C@H](C)NC(=O)[C@H](C)NC(=O)[C@H](CCC(=O)O)NC(=O)[C@H](CC(=O)O)NC1=O)NC(=O)[C@H](C)NC(=O)[C@H](CC(=O)O)NC2=O (stereo partly drawn) [I-170, Ac-PL3-Asp-Ala-B5-Asp-Glu-Ala-Ala-Phe-Val-S8-Phe-5CpW-Gln-NH2]
5 | – | 1.6 | – | CC(=O)N[C@@H](Cc1ccccc1)C(=O)N[C@@H](CC(=O)O)C(=O)N[C@@H](C)C(=O)N[C@]1(C)CCCN(C)C(=O)OCC=CCCCC[C@@](C)(C(=O)N[C@@H](Cc2ccccc2)C(=O)N[C@@H](Cc2c[nH]c3ccccc23)C(=O)N[C@@H](CCC(N)=O)C(N)=O)NC(=O)[C@H](C(C)C)NC(=O)[C@H](Cc2ccccc2)NC(=O)[C@H](C)NC(=O)[C@H](C)NC(=O)[C@H](CC(=O)O)NC(=O)[C@H](CC(=O)O)NC1=O (single isomer, unassigned) [I-29, Ac-Phe-Asp-Ala-ReN-Asp-Asp-Ala-Ala-Phe-Val-S6-Phe-Trp-Gln-NH2]
6 | 2.834 | – | – | CCCC[C@@H]1NC(=O)[C@H](CC(=O)O)NC(=O)C2(CCCC=CCCCCCC[C@@](C)(C(=O)N[C@@H](Cc3ccccc3)C(=O)N[C@@H](Cc3c[nH]c4ccccc34)C(=O)N[C@@H](CCC(N)=O)C(N)=O)NC(=O)[C@H](C(C)C)NC(=O)[C@H](Cc3ccccc3)NC(=O)[C@H](C)NC(=O)[C@H](C)NC1=O)CCCC=CC[C@]1(CCCN1C(C)=O)C(=O)N[C@@H](CC(=O)O)C(=O)N[C@@H](C)C(=O)N2 (single isomer, unassigned) [I-139, Ac-PL3-Asp-Ala-B5-Asp-nLeu-Ala-Ala-Phe-Val-S8-Phe-Trp-Gln-NH2]
7 | 2.867 | – | – | CC(=O)N1CCC[C@]12CC=CCCCC1(CCCC=CCCCCCC[C@@](C)(C(=O)N[C@@H](Cc3ccccc3)C(=O)N[C@@H](Cc3c[nH]c4ccccc34)C(=O)N[C@@H](CCC(N)=O)C(N)=O)NC(=O)[C@H](C(C)C)NC(=O)[C@H](Cc3ccccc3)NC(=O)[C@H](C)NC(=O)[C@H](C)NC(=O)[C@@](C)(CC(C)C)NC(=O)[C@H](CC(=O)O)NC1=O)NC(=O)[C@H](C)NC(=O)[C@H](CC(=O)O)NC2=O (single isomer, unassigned) [I-216, Ac-PL3-Asp-Ala-B5-Asp-DaMeL-Ala-Ala-Phe-Val-S8-Phe-Trp-Gln-NH2]
8 | 2.16 | – | – | CC[C@H](C)[C@@H]1NC(=O)C[C@H](CC(=O)O)NC(=O)[C@]2(CC=CCCCC3(CCCC=CCCCCCC[C@@](C)(C(=O)N[C@@H](Cc4ccccc4)C(=O)N[C@@H](Cc4csc5ccccc45)C(=O)N[C@@H](CCC(N)=O)C(N)=O)NC(=O)[C@H](CCC(N)=O)NC(=O)[C@H](Cc4ccccc4)NC(=O)[C@H](C)NC(=O)[C@H](C)NC(=O)[C@H](CCC(=O)O)NC(=O)[C@H](CC(=O)O)NC3=O)NC1=O)CCCN2C(C)=O (stereo partly drawn) [I-670, Ac-PL3-RbGlu-Ile-B5-Asp-Glu-Ala-Ala-Phe-Gln-S8-Phe-BztA-Gln-NH2]
9 | 2.224 | – | – | CC(=O)N1CCC[C@]12CC=CCCCC1(CCCC=CCCCCCC[C@@](C)(C(=O)N[C@@H](Cc3ccccc3)C(=O)N[C@@H](Cc3c[nH]c4ccccc34)C(=O)N[C@@H](CCC(N)=O)C(N)=O)NC(=O)[C@H](C(C)C)NC(=O)[C@H](Cc3ccccc3)NC(=O)[C@H](C)NC(=O)[C@H](C)NC(=O)[C@H](CC(=O)O)NC(=O)[C@H](CCC(=O)O)NC1=O)NC(=O)[C@H](C)NC(=O)[C@H](CC(=O)O)NC2=O (stereo partly drawn) [I-282, Ac-PL3-Asp-Ala-B5-Glu-Asp-Ala-Ala-Phe-Val-S8-Phe-Trp-Gln-NH2]
10 | – | 1.33 | – | CC(=O)N[C@@H](Cc1ccccc1)C(=O)N[C@@H](CC(=O)O)C(=O)N[C@@H](C)C(=O)N[C@]1(C)CCCCCCC=CCOC(=O)N2CC[C@@](C(=O)N[C@@H](Cc3ccccc3)C(=O)N[C@@H](Cc3c[nH]c4ccccc34)C(=O)N[C@@H](CCC(N)=O)C(N)=O)(C2)NC(=O)[C@H](C(C)C)NC(=O)[C@H](Cc2ccccc2)NC(=O)[C@H](C)NC(=O)[C@H](C)NC(=O)[C@H](CCCC(=O)O)NC(=O)[C@H](CC(=O)O)NC1=O (single isomer, unassigned) [I-5, Ac-Phe-Asp-Ala-R8-Asp-Aad-Ala-Ala-Phe-Val-PyrS-Phe-Trp-Gln-NH2]
11 | 1.29 | – | – | CC(=O)N[C@@H](Cc1ccccc1)C(=O)N[C@@H](CC(=O)O)C(=O)N[C@@H](C)C(=O)N[C@]1(C)CCCCCCC=CCOC(=O)N2CC[C@@](C(=O)N[C@@H](Cc3ccccc3)C(=O)N[C@@H](Cc3c[nH]c4ccccc34)C(=O)N[C@@H](CCC(N)=O)C(N)=O)(C2)NC(=O)[C@H](CO)NC(=O)[C@H](Cc2ccccc2)NC(=O)[C@H](C)NC(=O)[C@H](C)NC(=O)[C@H](CC(=O)O)NC(=O)[C@H](CC(=O)O)NC1=O [I-163, Ac-Phe-Asp-Ala-R8-Asp-Asp-Ala-Ala-Phe-Ser-PyrS-Phe-Trp-Gln-NH2]
12 | – | 2.04 | – | CC(=O)N1CCC[C@]12CC=CCCCC1(CCCC=CCCCCCC[C@@](C)(C(=O)N[C@@H](Cc3ccccc3)C(=O)N[C@@H](Cc3c[nH]c4ccccc34)C(=O)N[C@@H](CCC(N)=O)C(N)=O)NC(=O)[C@H](C(C)C)NC(=O)[C@H](Cc3c[nH]cn3)NC(=O)[C@H](C)NC(=O)[C@H](C)NC(=O)[C@H](CC(=O)O)NC(=O)[C@H](CC(=O)O)NC1=O)NC(=O)[C@H](C)NC(=O)[C@H](CC(=O)O)NC2=O (single isomer, unassigned) [I-320, Ac-PL3-Asp-Ala-B5-Asp-Asp-Ala-Ala-His-Val-S8-Phe-Trp-Gln-NH2]
13 | – | 0.84 | – | CC(=O)N[C@@H](Cc1ccccc1)C(=O)N[C@@H](CC(=O)O)C(=O)N[C@@H](C)C(=O)N[C@]1(C)CCCCCCC=CCOC(=O)N2CC[C@@](C(=O)N[C@@H](CC(=O)O)C(=O)N[C@@H](Cc3c[nH]c4ccccc34)C(=O)N[C@@H](CCC(N)=O)C(N)=O)(C2)NC(=O)[C@H](C(C)C)NC(=O)[C@H](Cc2ccccc2)NC(=O)[C@H](C)NC(=O)[C@H](C)NC(=O)[C@H](CC(=O)O)NC(=O)[C@H](CC(=O)O)NC1=O (single isomer, unassigned) [I-122, Ac-Phe-Asp-Ala-R8-Asp-Asp-Ala-Ala-Phe-Val-PyrS-Asp-Trp-Gln-NH2]
14 | – | 1.31 | – | CC(=O)N[C@@H](Cc1ccccc1)C(=O)N[C@@H](CC(=O)O)C(=O)N[C@@H](C)C(=O)N[C@]1(C)CN(C)C(=O)OCC=CCCCCCC[C@@](C)(C(=O)N[C@@H](Cc2ccccc2)C(=O)N[C@@H](Cc2c[nH]c3ccccc23)C(=O)N[C@@H](CCC(N)=O)C(N)=O)NC(=O)[C@H](C(C)C)NC(=O)[C@H](Cc2ccccc2)NC(=O)[C@H](C)NC(=O)[C@H](C)NC(=O)[C@H](CC(=O)O)NC(=O)[C@H](CC(=O)O)NC1=O (single isomer, unassigned) [I-43, Ac-Phe-Asp-Ala-RgN-Asp-Asp-Ala-Ala-Phe-Val-S8-Phe-Trp-Gln-NH2]
15 | 1.27 | – | – | CC[C@H](C)[C@H](NC(=O)[C@H](CC(=O)O)NC(C)=O)C(=O)N[C@]1(C)CCN(C)C(=O)OCC=CCCCCC[C@@](C)(C(=O)N[C@@H](Cc2ccccc2)C(=O)N[C@@H](Cc2c[nH]c3ccccc23)C(=O)N[C@@H](Cc2c[nH]cn2)C(N)=O)NC(=O)[C@H](CCC(N)=O)NC(=O)[C@H](Cc2ccccc2)NC(=O)[C@H](C)NC(=O)[C@H](C)NC(=O)[C@H](CC(=O)O)NC(=O)[C@H](CC(=O)O)NC1=O [I-149, Ac-Asp-Ile-RdN-Asp-Asp-Ala-Ala-Phe-Gln-S7-Phe-Trp-His-NH2]
16 | – | 1.32 | – | CC(=O)N[C@@H](Cc1ccccc1)C(=O)N[C@@H](CC(=O)O)C(=O)N[C@@H](C)C(=O)N[C@]1(C)CCCCCCC=CCOC(=O)N2CC[C@@](C(=O)N[C@@H](CC3CCCC3)C(=O)N[C@@H](Cc3c[nH]c4ccccc34)C(=O)N[C@@H](CCC(N)=O)C(N)=O)(C2)NC(=O)[C@H](C(C)C)NC(=O)[C@H](Cc2ccccc2)NC(=O)[C@H](C)NC(=O)[C@H](C)NC(=O)[C@H](CC(=O)O)NC(=O)[C@H](CC(=O)O)NC1=O (single isomer, unassigned) [I-93, Ac-Phe-Asp-Ala-R8-Asp-Asp-Ala-Ala-Phe-Val-PyrS-CypA-Trp-Gln-NH2]
